Experiment: Log P by HPLC on reversed phase columns (EEC directive 79/831 Annex V.A8)
Assay type: physicochemical
Details: method [a]
How it was run: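 Values come from retention times calibrated against alkan-2-ones (3–16 carbons) by linear interpolation, using reversed-phase LC-UV per EEC directive 79/831 Annex V.A8. Acetonitrile gradient 10–95% with 0.1% formic acid [a], 0.001 M ammonium acetate [b] or 0.1% phosphoric acid [c]; several values within one method separated by "+".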

Row | Structure (SMILES) | LogP
1 | CCOC(=O)C1(NC(=O)c2sc(C#N)c(Cl)c2Cl)CC1 [1.0572] | 2.76^[a]
2 | COC(=O)C1(NC(=O)c2sc(C#N)c(Cl)c2Cl)CC1 [1.0573] | 2.40^[a]
3 | COC(=O)C(C)(C)NC(=O)c1sc(C#N)c(Cl)c1Cl [1.0574] | 2.90^[a]
4 | CCOC(=O)C(NC(=O)c1sc(C#N)c(Cl)c1Cl)C(C)C (centres unmarked) [1.0575] | 3.89^[a]
5 | COC(=O)C(NC(=O)c1sc(C#N)c(Cl)c1Cl)C1CC1 (centres unmarked) [1.0576] | 3.05^[a]
6 | CCOC(=O)C(Cc1ccccc1)NC(=O)c1sc(C#N)c(Cl)c1Cl (centres unmarked) [1.0577] | 4.11^[a]
7 | COC(=O)C1(NC(=O)c2sc(C#N)c(Cl)c2Cl)CCC1 [1.0578] | 2.94^[a]
8 | CCOC(=O)C1(NC(=O)c2sc(C#N)c(Cl)c2Cl)CCC1 [1.0579] | 3.35^[a]
9 | CCCOC(=O)C1(NC(=O)c2sc(C#N)c(Cl)c2Cl)CC1 [1.0580] | 3.15^[a]
10 | N#Cc1sc(C(=O)NC2(C(=O)OC3CCC3)CC2)c(Cl)c1Cl [1.0581] | 3.30^[a]
11 | N#CCNC(=O)c1sc(C#N)c(Cl)c1Cl [1.0582] | 2.04^[a]
12 | CCOC(=O)C(Cc1ccccc1)NC(=O)c1sc(C#N)c(Br)c1Cl (centres unmarked) [1.0586] | 4.13^[a]
13 | Cc1c(C(=O)NC2(C(=O)OC3CCC3)CC2)sc(Cl)c1Br [1.0590] | 3.81^[a]
14 | CCCOC(=O)C1(NC(=O)c2sc(Br)c(Cl)c2F)CC1 [1.0591] | 3.56^[a]
15 | O=C(NC1(C(=O)OC2CCC2)CC1)c1sc(Br)c(Cl)c1F [1.0592] | 3.72^[a]
16 | O=C(NC1(C(=O)OC2CCC2)CC1)c1sc(Cl)c(Br)c1Br [1.0594] | 4.20^[a]
17 | COC(=O)C1(NC(=O)c2sc(Cl)c(Br)c2Cl)CC1 [1.0595] | 3.11^[a]
18 | O=C(NC1(C(=O)OC2CCC2)CC1)c1sc(Cl)c(Br)c1Cl [1.0597] | 4.15^[a]
19 | CCCOC(=O)C1(NC(=O)c2cc(Cl)c(Br)s2)CC1 [1.0598] | 3.28^[a]
20 | O=C(NC1(C(=O)OC2CCC2)CC1)c1cc(Cl)c(Br)s1 [1.0599] | 3.43^[a]
21 | CCCOC(=O)C1(NC(=O)c2cc(Br)c(Cl)s2)CC1 [1.0601] | 3.43^[a]
22 | COC(=O)C1(NC(=O)c2sc(C#N)c(Br)c2Cl)CC1 [1.0602] | 2.44^[a]
23 | COC(=O)C1(NC(=O)c2sc(Cl)c(Br)c2F)CC1 [1.0603] | 2.70^[a]
24 | O=C(NC1(C(=O)OC2CCC2)CC1)c1cc(Br)c(Cl)s1 [1.0607] | 3.46^[a]

Row | Structure (SMILES) | LogP
25 | CC(C)OC(=O)C1(NC(=O)c2sc(Cl)c(Cl)c2Br)CCC1 [1.0611] | 4.69^[a]
26 | COC(=O)C1(NC(=O)c2sc(Cl)c(Cl)c2Br)CC(C)(C)C1 [1.0612] | 4.50^[a]
27 | COC(=O)C1(NC(=O)c2sc(Cl)c(Cl)c2Br)CCC1 [1.0613] | 3.67^[a]
28 | CC(C)(C)OC(=O)C1(NC(=O)c2sc(Cl)c(Cl)c2Br)CC(F)(F)C1 [1.0614] | 4.83^[a]
29 | O=C(NC(C(=O)OCc1ccccc1)C1CC1)c1sc(Br)c(Br)c1Cl (centres unmarked) [1.0615] | 5.07^[a]
30 | CC(C)OC(=O)C1(NC(=O)c2sc(Br)c(Br)c2Cl)CCC1 [1.0616] | 4.71^[a]
31 | O=C(NC(C(=O)OCc1ccccc1)C1CC1)c1sc(Cl)c(Cl)c1Br (centres unmarked) [1.0617] | 5.10^[a]
32 | COC(=O)C1(NC(=O)c2sc(Br)c(Br)c2Cl)CC(C)(C)C1 [1.0618] | 4.52^[a]
33 | O=C(NC(C(=O)OCc1ccccc1)C1CC1)c1sc(Br)c(Br)c1F (centres unmarked) [1.0619] | 4.63^[a]
34 | CC(C)OC(=O)C1(NC(=O)c2sc(Br)c(Br)c2F)CCC1 [1.0620] | 4.23^[a]
35 | COC(=O)C1(NC(=O)c2sc(Br)c(Br)c2F)CC(C)(C)C1 [1.0621] | 4.12^[a]
36 | COC(=O)C1(NC(=O)c2sc(Br)c(Br)c2F)CC(F)(F)C1 [1.0622] | 3.37^[a]
37 | CC(C)(C)OC(=O)C1(NC(=O)c2sc(Br)c(Br)c2F)CC(F)(F)C1 [1.0623] | 4.46^[a]
38 | COC(=O)C1(NC(=O)c2sc(Br)c(Br)c2Cl)CC(F)(F)C1 [1.0624] | 3.69^[a]
39 | COC(=O)C(C)(C)NC(=O)c1sc(Br)c(C(F)F)c1Br [1.0627] | 3.22^[a]
40 | N#Cc1c(C(=O)NC2(C(=O)OC3CCC3)CC2)sc(Cl)c1Br [1.0632] | 3.21^[a]
41 | COC(=O)C(C)(C)NC(=O)c1sc(Cl)c(Br)c1F [1.0637] | 3.27^[a]
42 | CCOC(=O)C(Cc1ccccc1)NC(=O)c1sc(Cl)c(Br)c1F (centres unmarked) [1.0640] | 4.50^[a]
43 | COC(=O)C1(NC(=O)c2sc(Cl)c(Br)c2F)CCC1 [1.0641] | 3.29^[a]
44 | O=C(NC1(C(=O)OC2CCC2)CC1)c1sc(Cl)c(Br)c1F [1.0644] | 3.69^[a]
45 | CCOC(=O)C1(NC(=O)c2sc(Br)c(C(F)F)c2Br)CC1 [1.0648] | 3.05^[a]
46 | COC(=O)C1(NC(=O)c2sc(Br)c(C(F)F)c2Br)CC1 [1.0649] | 2.70^[a]
47 | COC(=O)C(NC(=O)c1sc(Cl)c(Br)c1F)C1CC1 (centres unmarked) [1.0650] | 3.41^[a]
48 | Cc1c(C(=O)NC2(C(=O)OC3CCC3)CC2)sc(Br)c1Cl [1.0651] | 3.78^[a]

Second part, the compound after the results:

Row | LogP | Structure (SMILES)
49 | 2.08^[a] | N#CCNC(=O)c1sc(C#N)c(Br)c1Cl [1.0569]
50 | 2.60^[a] | CCOC(=O)CNC(=O)c1sc(C#N)c(Cl)c1Cl [1.0570]
51 | 2.20^[a] | COC(=O)CNC(=O)c1sc(C#N)c(Cl)c1Cl [1.0571]
52 | 2.56^[a] | CCOC(=O)CNC(=O)c1sc(Cl)c(Br)c1C#N [1.0583]
53 | 2.20^[a] | COC(=O)CNC(=O)c1sc(Cl)c(Br)c1C#N [1.0584]
54 | 2.70^[a] | CCOC(=O)C1(NC(=O)c2sc(Cl)c(Br)c2C#N)CC1 [1.0585]
55 | 3.08^[a] | COC(=O)C(NC(=O)c1sc(C#N)c(Br)c1Cl)C1CC1 (centres unmarked) [1.0587]
56 | 3.92^[a] | CCOC(=O)C(NC(=O)c1sc(C#N)c(Br)c1Cl)C(C)C (centres unmarked) [1.0588]
57 | 2.93^[a] | COC(=O)C(C)(C)NC(=O)c1sc(C#N)c(Br)c1Cl [1.0589]
58 | 3.98^[a] | CCCOC(=O)C1(NC(=O)c2sc(Cl)c(Br)c2Br)CC1 [1.0593]
59 | 3.98^[a] | CCCOC(=O)C1(NC(=O)c2sc(Cl)c(Br)c2Cl)CC1 [1.0596]
60 | 2.36^[a] | COC(=O)C1(NC(=O)c2sc(Cl)c(Br)c2C#N)CC1 [1.0600]
61 | 2.63^[a] | CCOC(=O)CNC(=O)c1sc(C#N)c(Br)c1Cl [1.0604]
62 | 2.24^[a] | COC(=O)CNC(=O)c1sc(C#N)c(Br)c1Cl [1.0605]
63 | 2.79^[a] | CCOC(=O)C1(NC(=O)c2sc(C#N)c(Br)c2Cl)CC1 [1.0606]
64 | 2.77^[a] | COC(=O)C(C)(C)NC(=O)c1sc(Cl)c(Br)c1C#N [1.0608]
65 | 3.81^[a] | CCOC(=O)C(NC(=O)c1sc(Cl)c(Br)c1C#N)C(C)C (centres unmarked) [1.0609]
66 | 2.93^[a] | COC(=O)C(NC(=O)c1sc(Cl)c(Br)c1C#N)C1CC1 (centres unmarked) [1.0610]
67 | 3.62^[a] | CCCOC(=O)C1(NC(=O)c2sc(Cl)c(Br)c2C)CC1 [1.0625]
68 | 1.98^[a] | NC(=O)CNC(=O)c1sc(Cl)c(Cl)c1Br [1.0626]
69 | 4.00^[a] | CCOC(=O)C(Cc1ccccc1)NC(=O)c1sc(Cl)c(Br)c1C#N (centres unmarked) [1.0628]

Row | LogP | Structure (SMILES)
70 | 2.82^[a] | COC(=O)C1(NC(=O)c2sc(Cl)c(Br)c2C#N)CCC1 [1.0629]
71 | 3.20^[a] | CCOC(=O)C1(NC(=O)c2sc(Cl)c(Br)c2C#N)CCC1 [1.0630]
72 | 3.06^[a] | CCCOC(=O)C1(NC(=O)c2sc(Cl)c(Br)c2C#N)CC1 [1.0631]
73 | 2.07^[a] | N#CCNC(=O)c1sc(Cl)c(Br)c1C#N [1.0633]
74 | 2.88^[a] | CCOC(=O)CNC(=O)c1sc(Cl)c(Br)c1F [1.0634]
75 | 2.49^[a] | COC(=O)CNC(=O)c1sc(Cl)c(Br)c1F [1.0635]
76 | 3.10^[a] | CCOC(=O)C1(NC(=O)c2sc(Cl)c(Br)c2F)CC1 [1.0636]
77 | 1.98^[a] | NC(=O)CNC(=O)c1sc(Br)c(Br)c1Cl [1.0638]
78 | 4.40^[a] | CCOC(=O)C(NC(=O)c1sc(Cl)c(Br)c1F)C(C)C (centres unmarked) [1.0639]
79 | 3.75^[a] | CCOC(=O)C1(NC(=O)c2sc(Cl)c(Br)c2F)CCC1 [1.0642]
80 | 3.52^[a] | CCCOC(=O)C1(NC(=O)c2sc(Cl)c(Br)c2F)CC1 [1.0643]
81 | 2.36^[a] | N#CCNC(=O)c1sc(Cl)c(Br)c1F [1.0645]
82 | 2.92^[a] | CCOC(=O)CNC(=O)c1sc(Br)c(C(F)F)c1Br [1.0646]
83 | 2.56^[a] | COC(=O)CNC(=O)c1sc(Br)c(C(F)F)c1Br [1.0647]
84 | 2.03^[a] | N#CCNC(=O)c1sc(Br)c(C#N)c1Cl [1.0652]
85 | 2.58^[a] | CCOC(=O)CNC(=O)c1sc(Cl)c(C#N)c1Br [1.0653]
86 | 2.21^[a] | COC(=O)CNC(=O)c1sc(Cl)c(C#N)c1Br [1.0654]
87 | 2.69^[a] | CCOC(=O)C1(NC(=O)c2sc(Cl)c(C#N)c2Br)CC1 [1.0655]
88 | 2.34^[a] | COC(=O)C1(NC(=O)c2sc(Cl)c(C#N)c2Br)CC1 [1.0656]
89 | 2.83^[a] | COC(=O)C(C)(C)NC(=O)c1sc(Cl)c(C#N)c1Br [1.0657]

Same assay, conditions: method marked [a]

Row | LogP | Structure (SMILES)
90 | 3.83^[a] | CCOC(=O)C(NC(=O)c1sc(Cl)c(C#N)c1Br)C(C)C (centres unmarked) [1.0658]
91 | 3.00^[a] | COC(=O)C(NC(=O)c1sc(Cl)c(C#N)c1Br)C1CC1 (centres unmarked) [1.0659]
92 | 4.09^[a] | CCOC(=O)C(Cc1ccccc1)NC(=O)c1sc(Cl)c(C#N)c1Br (centres unmarked) [1.0660]
93 | 2.87^[a] | COC(=O)C1(NC(=O)c2sc(Cl)c(C#N)c2Br)CCC1 [1.0661]
94 | 3.28^[a] | CCOC(=O)C1(NC(=O)c2sc(Cl)c(C#N)c2Br)CCC1 [1.0662]
95 | 2.03^[a] | N#CCNC(=O)c1sc(Cl)c(C#N)c1Br [1.0663]
96 | 2.64^[a] | CCOC(=O)CNC(=O)c1sc(C#N)c(Cl)c1Br [1.0664]
97 | 2.25^[a] | COC(=O)CNC(=O)c1sc(C#N)c(Cl)c1Br [1.0665]
98 | 2.76^[a] | CCOC(=O)C1(NC(=O)c2sc(C#N)c(Cl)c2Br)CC1 [1.0666]

From patent publication US12642270B2, “Substituted thiophene carboxamides, thiophene carboxylic acids and derivatives thereof” (Bayer Aktiengesellschaft, priority 2019, dated 2026)
